The term Km denotes the concentration of substrate that gives half-maximal velocity.

Structures are written as SMILES.

The subject of data set [1] is Escherichia coli. The experiment in a line: Concentration required to sustain growth of Escherichia coli HDU-78; 1-10 nM. The class given is functional, organism-based.
Data set [2] is described as follows: Kinetic parameter for rate of conversion to PABA was determined. Format: ADME.

On to `Nc1ccc(C(=O)O)cc1`, for which, in data set [1], the Concentration was found to be 10 nM.

Consider `CC(=O)CC(C)(O)CCOC(=O)Nc1ccc(C(=O)O)cc1` (stereo not drawn), for which, in data set [2], the Km worked out at 150 µM and the k cat is 0.000115 s⁻¹.

Values taken from ChEMBL document CHEMBL1135160, “Development of a genetic selection for catalytic antibodies” (Bioorg Med Chem Lett, 2002).
